# Source: ChEMBL document CHEMBL5505993, “Identification of a ferritinophagy inducer via sinomenine modification for the treatment of colorectal cancer” (Eur J Med Chem, 2024)
# Assays:
# HT-29 = assay: Cytotoxicity against human HT-29 cells assessed as inhibition of cell growth incubated for 48 hrs by CCK-8 assay; format: functional, cell-based; settings: HT-29, 48 h
# [1] = Cytotoxicity against human NCM460 cells assessed as inhibition of cell growth incubated for 48 hrs by CCK-8 assay; format: toxicity, cell-based
# HCT-116 = assay: Cytotoxicity against human HCT-116 cells assessed as inhibition of cell growth incubated for 48 hrs by CCK-8 assay; format: functional, cell-based; settings: HCT-116, 48 h
SMILES,IC50 (HT-29) [µM],IC50 at 48 h [1] [µM],IC50 (HCT-116) [µM]
CCO/C=C/C(=O)Oc1c(OC)ccc2c1[C@@]13CCN(C)[C@@H](C2)[C@H]1C=C(OC)C(=O)C3,> 50,> 50,> 50
COC1=C[C@@H]2[C@@H]3Cc4ccc(OC)c(OC(=O)/C=C/C(F)(F)F)c4[C@]2(CCN3C)CC1=O,5.99,16,6.01
C=CCCC(=O)Oc1c(OC)ccc2c1[C@@]13CCN(C)[C@@H](C2)[C@H]1C=C(OC)C(=O)C3,> 50,> 50,> 50
C=C(C)C(=O)Oc1c(OC)ccc2c1[C@@]13CCN(C)[C@@H](C2)[C@H]1C=C(OC)C(=O)C3,> 50,> 50,61.4
C=CC(=O)NCCC(=O)Oc1c(OC)ccc2c1[C@@]13CCN(C)[C@@H](C2)[C@H]1C=C(OC)C(=O)C3,> 50,> 50,> 50
COC1=C[C@@H]2[C@@H]3Cc4ccc(OC)c(OC(=O)c5ccc(OC)cc5)c4[C@]2(CCN3C)CC1=O,> 50,> 50,> 50
CCCCCCCCCCCC(=O)Oc1c(OC)ccc2c1[C@@]13CCN(C)[C@@H](C2)[C@H]1C=C(OC)C(=O)C3,4,9.85,5.69
C=C(Cl)C(=O)NCCCCCCCC(=O)Oc1c(OC)ccc2c1[C@@]13CCN(C)[C@@H](C2)[C@H]1C=C(OC)C(=O)C3,17.8,> 50,19.6
COC1=C[C@@H]2[C@@H]3Cc4ccc(OC)c(OC(=O)C5CC5)c4[C@]2(CCN3C)CC1=O,> 50,> 50,> 50
COC1=C[C@@H]2[C@@H]3Cc4ccc(OC)c(OC(C)=O)c4[C@]2(CCN3C)CC1=O,> 50,> 50,> 50
COC1=C[C@@H]2[C@@H]3Cc4ccc(OC)c(O)c4[C@]2(CCN3C)CC1=O [SINOMENINE],> 50,> 50,> 50
C=CC(=O)Oc1c(OC)ccc2c1[C@@]13CCN(C)[C@@H](C2)[C@H]1C=C(OC)C(=O)C3,9.12,32.5,7.04
CCCCCCC(=O)Oc1c(OC)ccc2c1[C@@]13CCN(C)[C@@H](C2)[C@H]1C=C(OC)C(=O)C3,31.9,> 50,> 50
COC1=C[C@@H]2[C@@H]3Cc4ccc(OC)c(OC(=O)CCCCCCCNC(=O)/C=C/C(F)(F)F)c4[C@]2(CCN3C)CC1=O,> 50,> 50,> 50
COC1=C[C@@H]2[C@@H]3Cc4ccc(OC)c(OC(=O)CCCCCCCCCCCNC(=O)/C=C/C(F)(F)F)c4[C@]2(CCN3C)CC1=O,8.71,22.9,7.84
COC1=C[C@@H]2[C@@H]3Cc4ccc(OC)c(OC(=O)c5ccccc5)c4[C@]2(CCN3C)CC1=O,> 50,> 50,> 50
COC1=C[C@@H]2[C@@H]3Cc4ccc(OC)c(OC(=O)C(C)C)c4[C@]2(CCN3C)CC1=O,> 50,> 50,> 50
C=CC(=O)NCCCCCCCC(=O)Oc1c(OC)ccc2c1[C@@]13CCN(C)[C@@H](C2)[C@H]1C=C(OC)C(=O)C3,> 50,> 50,> 50
C/C=C/C(=O)Oc1c(OC)ccc2c1[C@@]13CCN(C)[C@@H](C2)[C@H]1C=C(OC)C(=O)C3,> 50,> 50,> 50
C=C(Cl)C(=O)NCCC(=O)Oc1c(OC)ccc2c1[C@@]13CCN(C)[C@@H](C2)[C@H]1C=C(OC)C(=O)C3,9.45,34.5,4.76
CCCC(=O)Oc1c(OC)ccc2c1[C@@]13CCN(C)[C@@H](C2)[C@H]1C=C(OC)C(=O)C3,> 50,> 50,> 50
C=CC(=O)NCCCCCCCCCCCC(=O)Oc1c(OC)ccc2c1[C@@]13CCN(C)[C@@H](C2)[C@H]1C=C(OC)C(=O)C3,7.14,33.2,20.2
COC1=C[C@@H]2[C@@H]3Cc4ccc(OC)c(OC(=O)c5ccc(Cl)cc5)c4[C@]2(CCN3C)CC1=O,25.1,> 50,> 50
C=C(Cl)C(=O)Oc1c(OC)ccc2c1[C@@]13CCN(C)[C@@H](C2)[C@H]1C=C(OC)C(=O)C3,8.66,35.2,12.9
COCC(=O)Oc1c(OC)ccc2c1[C@@]13CCN(C)[C@@H](C2)[C@H]1C=C(OC)C(=O)C3,> 50,> 50,> 50
COC1=C[C@@H]2[C@@H]3Cc4ccc(OC)c(OC(=O)/C=C/c5ccccc5)c4[C@]2(CCN3C)CC1=O,> 50,> 50,> 50
COC1=C[C@@H]2[C@@H]3Cc4ccc(OC)c(OC(=O)CCl)c4[C@]2(CCN3C)CC1=O,> 50,> 50,33.3
COC1=C[C@@H]2[C@@H]3Cc4ccc(OC)c(OC(=O)CCNC(=O)/C=C/C(F)(F)F)c4[C@]2(CCN3C)CC1=O,> 50,> 50,> 50
